Test results taken from US12077503B2, “Substituted cyclic amides and their use as herbicides” (FMC CORPORATION, priority 2015, dated 2024).

Tests used:
Format in all cases: in vivo
[1] = tested on: pigweed (Amaranthus retroflexus); assay: Test A postemergence; details: for Pigweed plant response rating: 125 g ai/ha, postemergence, visual injury rating on 0 to 100 scale (0 no effect, 100 complete control), approx. 10 d; for Plant response rating, Pigweed: Postemergence, 500 g ai/ha, 0 to 100 scale where 0 is no effect and 100 is complete control
In short: (§1)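 Preemergence soil spray on seeded pots or post-emergence spray on 1–2 leaf plants, in loam–sand blend. Greenhouse ~10 d. Visual rating 0–100 against untreated plants.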

[2] = tested on: Galium (catchweed bedstraw, Galium aparine); assay: Test A postemergence; details: for Galium plant response rating: 125 g ai/ha, postemergence, visual injury rating on 0 to 100 scale (0 no effect, 100 complete control), approx. 10 d; for Plant response rating, Galium: Postemergence, 500 g ai/ha, 0 to 100 scale where 0 is no effect and 100 is complete control
In short: as §1

[3] = tested on: ryegrass, Italian (Italian ryegrass, Lolium multiflorum); assay: Test A postemergence; details: for Ryegrass, Italian plant response rating: 125 g ai/ha, postemergence, visual injury rating on 0 to 100 scale (0 no effect, 100 complete control), approx. 10 d; for Plant response rating, Ryegrass, Italian: Postemergence, 500 g ai/ha, 0 to 100 scale where 0 is no effect and 100 is complete control
In short: as §1

[4] = tested on: wheat (Triticum aestivum); assay: Test A postemergence; details: for Wheat plant response rating: 125 g ai/ha, postemergence, visual injury rating on 0 to 100 scale (0 no effect, 100 complete control), approx. 10 d; for Plant response rating, Wheat: Postemergence, 500 g ai/ha, 0 to 100 scale where 0 is no effect and 100 is complete control
In short: as §1

corn (Zea mays) = assay: Test A postemergence; details: postemergence; for Corn plant response rating: 125 g ai/ha, visual injury rating on 0 to 100 scale (0 no effect, 100 complete control), approx. 10 d; for Plant response rating, Corn: 500 g ai/ha, 0 to 100 scale, 0 no effect, 100 complete control
In short: as §1

[5] = tested on: blackgrass (Alopecurus myosuroides); assay: Test A postemergence; details: postemergence; for Blackgrass plant response rating: 125 g ai/ha, visual injury rating on 0 to 100 scale (0 no effect, 100 complete control), approx. 10 d; for Plant response rating, Blackgrass: 500 g ai/ha, 0 to 100 scale, 0 no effect, 100 complete control
In short: as §1

Kochia (Kochia scoparia) [6] = assay: Test A postemergence; details: for Kochia plant response rating: 125 g ai/ha, postemergence, visual injury rating on 0 to 100 scale (0 no effect, 100 complete control), approx. 10 d; for Plant response rating, Kochia: Postemergence, 500 g ai/ha, 0 to 100 scale where 0 is no effect and 100 is complete control
In short: as §1

[7] = tested on: barnyardgrass (Echinochloa crus-galli); assay: Test A postemergence; details: postemergence; for Barnyardgrass plant response rating: 125 g ai/ha, visual injury rating on 0 to 100 scale (0 no effect, 100 complete control), approx. 10 d; for Plant response rating, Barnyardgrass: 500 g ai/ha, 0 to 100 scale, 0 no effect, 100 complete control
In short: as §1

[8] = tested on: giant foxtail (Setaria faberii); assay: Test A postemergence; details: for Foxtail, Giant plant response rating: 125 g ai/ha, postemergence, visual injury rating on 0 to 100 scale (0 no effect, 100 complete control), approx. 10 d; for Plant response rating, Foxtail, Giant: Postemergence, 500 g ai/ha, 0 to 100 scale where 0 is no effect and 100 is complete control
In short: as §1

[9] = tested on: ragweed (common ragweed, Ambrosia elatior); assay: Test A postemergence; details: for Ragweed plant response rating: 125 g ai/ha, postemergence, visual injury rating on 0 to 100 scale (0 no effect, 100 complete control), approx. 10 d; for Plant response rating, Ragweed: Postemergence, 500 g ai/ha, 0 to 100 scale where 0 is no effect and 100 is complete control
In short: as §1

[10] = tested on: ducksalad (Heteranthera limosa); assay: Test B flooded paddy test; details: Flood, 250 g ai/ha; 0 to 100 scale where 0 is no effect and 100 is complete control; 13 to 15 d
In short: (§2)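 Compound goes directly into floodwater once pots are flooded 3 cm above soil, targeting plants at two leaves; the water depth is then held for the test duration. Plants sit 13–15 d in a greenhouse and are rated visually, 100 denoting complete control.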

[11] = tested on: sedge, umbrella (small-flower umbrella sedge, Cyperus difformis); assay: Test B flooded paddy test; details: Flood, 250 g ai/ha; 0 to 100 scale where 0 is no effect and 100 is complete control; 13 to 15 d
In short: as §2

rice (Oryra sativa) = assay: Test B flooded paddy test; details: Flood, 250 g ai/ha; 0 to 100 scale where 0 is no effect and 100 is complete control; 13 to 15 d
In short: as §2

[12] = tested on: barnyardgrass (Echinochloa crus-galli); assay: Test B flooded paddy test; details: Flood, 250 g ai/ha; 0 to 100 scale where 0 is no effect and 100 is complete control; 13 to 15 d
In short: as §2

[13] = tested on: pigweed (Amaranthus retroflexus); assay: Test A preemergence; details: Preemergence; for Plant response rating, Pigweed: 125 g ai/ha, visual injury after approximately 10 d, 0 to 100 scale where 0 is no effect and 100 is complete control; for Pigweed plant response rating (0 to 100 scale, 0 is no effect, 100 is complete control): 500 g ai/ha, visual injury approx. 10 d
[14] = tested on: ryegrass, Italian (Italian ryegrass, Lolium multiflorum); assay: Test A preemergence; details: Preemergence; for Plant response rating, Ryegrass, Italian: 125 g ai/ha, visual injury after approximately 10 d, 0 to 100 scale where 0 is no effect and 100 is complete control; for Ryegrass, Italian plant response rating (0 to 100 scale, 0 is no effect, 100 is complete control): 500 g ai/ha, visual injury approx. 10 d
In short: as §1

Kochia (Kochia scoparia) [15] = assay: Test A preemergence; details: for Plant response rating, Kochia: 125 g ai/ha, preemergence, 0 to 100 scale (0 no effect, 100 complete control); for Kochia plant response rating (0 to 100 scale, 0 is no effect, 100 is complete control): Preemergence, 500 g ai/ha, visual injury approx. 10 d
In short: as §1

[16] = tested on: barnyardgrass (Echinochloa crus-galli); assay: Test A preemergence; details: for Plant response rating, Barnyardgrass: 125 g ai/ha, preemergence, 0 to 100 scale (0 no effect, 100 complete control); for Barnyardgrass plant response rating (0 to 100 scale, 0 is no effect, 100 is complete control): Preemergence, 500 g ai/ha, visual injury approx. 10 d
In short: as §1

[17] = tested on: giant foxtail (Setaria faberii); assay: Test A preemergence; details: for Plant response rating, Foxtail, Giant: 125 g ai/ha, preemergence, 0 to 100 scale (0 no effect, 100 complete control); for Foxtail, Giant plant response rating (0 to 100 scale, 0 is no effect, 100 is complete control): Preemergence, 500 g ai/ha, visual injury approx. 10 d
In short: as §1

[18] = tested on: ragweed (common ragweed, Ambrosia elatior); assay: Test A preemergence; details: Preemergence; for Plant response rating, Ragweed: 125 g ai/ha, visual injury after approximately 10 d, 0 to 100 scale where 0 is no effect and 100 is complete control; for Ragweed plant response rating (0 to 100 scale, 0 is no effect, 100 is complete control): 500 g ai/ha, visual injury approx. 10 d
In short: as §1

| SMILES | Pigweed plant response rating [1] | Plant response rating, Pigweed [1] | Galium plant response rating [2] | Plant response rating, Galium [2] | Ryegrass, Italian plant response rating [3] | Plant response rating, Ryegrass, Italian [3] | Wheat plant response rating [4] | Plant response rating, Wheat [4] | Corn plant response rating (corn (Zea mays)) | Plant response rating, Corn (corn (Zea mays)) | Blackgrass plant response rating [5] | Plant response rating, Blackgrass [5] | Kochia plant response rating (Kochia (Kochia scoparia) [6]) | Plant response rating, Kochia (Kochia (Kochia scoparia) [6]) | Barnyardgrass plant response rating [7] | Plant response rating, Barnyardgrass [7] | Foxtail, Giant plant response rating [8] | Plant response rating, Foxtail, Giant [8] | Ragweed plant response rating [9] | Plant response rating, Ragweed [9] | other results |
| --- | --- | --- | --- | --- | --- | --- | --- | --- | --- | --- | --- | --- | --- | --- | --- | --- | --- | --- | --- | --- | --- |
| CCc1ccc(C2CNC(=O)C2C(=O)Nc2cccc(F)c2F)cc1 (stereo not drawn) [Compound 467] | 0 | 0 | 0 | 0 | 0 | 40 | 0 | 30 | 0 | 20 | 0 | 0 | 0 | 0 | 80 | 90 | 40 | 80 | 0 | 20 | Plant response rating, Ducksalad [10]: 80; Plant response rating, Sedge, Umbrella [11]: 0; Plant response rating, Rice (rice (Oryra sativa)): 0; Plant response rating, Barnyardgrass [12]: 20; Plant response rating, Pigweed [13]: 0; Pigweed plant response rating (0 to 100 scale, 0 is no effect, 100 is complete control) [13]: 0; Plant response rating, Ryegrass, Italian [14]: 0; Ryegrass, Italian plant response rating (0 to 100 scale, 0 is no effect, 100 is complete control) [14]: 20; Plant response rating, Kochia (Kochia (Kochia scoparia) [15]): 30; Kochia plant response rating (0 to 100 scale, 0 is no effect, 100 is complete control) (Kochia (Kochia scoparia) [15]): 50; Plant response rating, Barnyardgrass [16]: 90; Barnyardgrass plant response rating (0 to 100 scale, 0 is no effect, 100 is complete control) [16]: 90; Plant response rating, Foxtail, Giant [17]: 90; Foxtail, Giant plant response rating (0 to 100 scale, 0 is no effect, 100 is complete control) [17]: 100; Plant response rating, Ragweed [18]: 30; Ragweed plant response rating (0 to 100 scale, 0 is no effect, 100 is complete control) [18]: 70 |
| CCc1ccc(C2CNC(=O)C2C(=O)Nc2ccccc2S(C)(=O)=O)cc1 (stereo not drawn) [Compound 468] | 0 | 0 | 20 | 30 | 0 | 0 | 0 | 20 | 0 | 0 | 0 | 20 | 0 | 20 | 0 | 30 | 0 | 0 | 0 | 0 | Plant response rating, Ducksalad [10]: 85; Plant response rating, Sedge, Umbrella [11]: 0; Plant response rating, Rice (rice (Oryra sativa)): 0; Plant response rating, Barnyardgrass [12]: 35; Plant response rating, Pigweed [13]: 0; Pigweed plant response rating (0 to 100 scale, 0 is no effect, 100 is complete control) [13]: 50; Plant response rating, Ryegrass, Italian [14]: 0; Ryegrass, Italian plant response rating (0 to 100 scale, 0 is no effect, 100 is complete control) [14]: 0; Plant response rating, Kochia (Kochia (Kochia scoparia) [15]): 40; Kochia plant response rating (0 to 100 scale, 0 is no effect, 100 is complete control) (Kochia (Kochia scoparia) [15]): 80; Plant response rating, Barnyardgrass [16]: 0; Barnyardgrass plant response rating (0 to 100 scale, 0 is no effect, 100 is complete control) [16]: 20; Plant response rating, Foxtail, Giant [17]: 0; Foxtail, Giant plant response rating (0 to 100 scale, 0 is no effect, 100 is complete control) [17]: 80; Plant response rating, Ragweed [18]: 0; Ragweed plant response rating (0 to 100 scale, 0 is no effect, 100 is complete control) [18]: 70 |
| CN1CC(c2ccc(C(F)(F)F)cc2F)C(C(=O)Nc2ccc(F)cc2F)C1=O (stereo not drawn) [Compound 474] | 30 | 30 | 40 | 50 | 20 | 50 | 0 | 30 | 0 | 20 | 30 | 50 | 50 | 60 | 90 | 90 | 90 | 90 | 0 | 0 | Plant response rating, Ducksalad [10]: 80; Plant response rating, Sedge, Umbrella [11]: 0; Plant response rating, Rice (rice (Oryra sativa)): 0; Plant response rating, Barnyardgrass [12]: 30; Plant response rating, Pigweed [13]: 30; Pigweed plant response rating (0 to 100 scale, 0 is no effect, 100 is complete control) [13]: 90; Plant response rating, Ryegrass, Italian [14]: 0; Ryegrass, Italian plant response rating (0 to 100 scale, 0 is no effect, 100 is complete control) [14]: 50; Plant response rating, Kochia (Kochia (Kochia scoparia) [15]): 60; Kochia plant response rating (0 to 100 scale, 0 is no effect, 100 is complete control) (Kochia (Kochia scoparia) [15]): 70; Plant response rating, Barnyardgrass [16]: 90; Barnyardgrass plant response rating (0 to 100 scale, 0 is no effect, 100 is complete control) [16]: 90; Plant response rating, Foxtail, Giant [17]: 90; Foxtail, Giant plant response rating (0 to 100 scale, 0 is no effect, 100 is complete control) [17]: 90; Plant response rating, Ragweed [18]: 0; Ragweed plant response rating (0 to 100 scale, 0 is no effect, 100 is complete control) [18]: 20 |
| O=C1NCC(c2ccc(C(F)(F)F)cc2F)C1C(=O)Nc1cccc(F)c1F (stereo not drawn) [Compound 475] | 50 | 70 | 50 | 60 | 20 | 30 | 0 | 30 | 0 | 60 | 30 | 40 | 40 | 60 | 90 | 90 | 90 | 90 | 20 | 30 | Plant response rating, Ducksalad [10]: 100; Plant response rating, Sedge, Umbrella [11]: 0; Plant response rating, Rice (rice (Oryra sativa)): 15; Plant response rating, Barnyardgrass [12]: 20; Plant response rating, Pigweed [13]: 60; Pigweed plant response rating (0 to 100 scale, 0 is no effect, 100 is complete control) [13]: 90; Plant response rating, Ryegrass, Italian [14]: 20; Ryegrass, Italian plant response rating (0 to 100 scale, 0 is no effect, 100 is complete control) [14]: 40; Plant response rating, Kochia (Kochia (Kochia scoparia) [15]): 70; Kochia plant response rating (0 to 100 scale, 0 is no effect, 100 is complete control) (Kochia (Kochia scoparia) [15]): 70; Plant response rating, Barnyardgrass [16]: 90; Barnyardgrass plant response rating (0 to 100 scale, 0 is no effect, 100 is complete control) [16]: 90; Plant response rating, Foxtail, Giant [17]: 90; Foxtail, Giant plant response rating (0 to 100 scale, 0 is no effect, 100 is complete control) [17]: 90; Plant response rating, Ragweed [18]: 50; Ragweed plant response rating (0 to 100 scale, 0 is no effect, 100 is complete control) [18]: 60 |
